Measured values taken from ChEMBL document CHEMBL2429722, “Synthesis of the non-peptidic snail toxin 6-bromo-2-mercaptotryptamine dimer (BrMT)(2), its lower and higher thio homologs and their ability to modulate potassium ion channels” (Bioorg Med Chem Lett, 2013).

Key:
Assay type in all cases: cell-based
Conditions in all cases: Oocyte
[1] = target: Potassium voltage-gated channel subfamily A member 1 (Mus musculus) (UniProt P16388); assay: Inhibition of mouse Kv1.1 channel expressed in Xenopus laevis oocytes assessed as reduction of current amplitude at 20 uM after 2 mins by two-electrode voltage clamp assay relative to control
[2] = target: Potassium voltage-gated channel subfamily A member 1 (Mus musculus) (UniProt P16388); assay: Inhibition of mouse Kv1.1 channel expressed in Xenopus laevis oocytes assessed as -50 mV current-induced channel closing time at 20 uM after 2 mins by two-electrode voltage clamp assay (reference value: 14.6 +/- 0.3 ms)
[3] = target: Potassium voltage-gated channel subfamily A member 1 (Mus musculus) (UniProt P16388); assay: Inhibition of mouse Kv1.1 channel expressed in Xenopus laevis oocytes assessed as decrease in +60 mV current-induced time constant of activation at 20 uM after 2 mins by two-electrode voltage clamp assay relative to control
[4] = target: Potassium voltage-gated channel subfamily A member 1 (Mus musculus) (UniProt P16388); assay: Inhibition of mouse Kv1.1 channel expressed in Xenopus laevis oocytes assessed as reduction of current amplitude at 15 uM after 2 mins by two-electrode voltage clamp assay relative to control
[5] = target: Potassium voltage-gated channel subfamily A member 1 (Mus musculus) (UniProt P16388); assay: Inhibition of mouse Kv1.1 channel expressed in Xenopus laevis oocytes assessed as reduction of current amplitude at 8 uM after 2 mins by two-electrode voltage clamp assay relative to control
[6] = target: Potassium voltage-gated channel subfamily A member 1 (Mus musculus) (UniProt P16388); assay: Inhibition of mouse Kv1.1 channel expressed in Xenopus laevis oocytes assessed as -50 mV current-induced channel closing time at 15 uM after 2 mins by two-electrode voltage clamp assay (reference value: 14.6 +/- 0.3 ms)
[7] = target: Potassium voltage-gated channel subfamily A member 1 (Mus musculus) (UniProt P16388); assay: Inhibition of mouse Kv1.1 channel expressed in Xenopus laevis oocytes assessed as -50 mV current-induced channel closing time at 8 uM after 2 mins by two-electrode voltage clamp assay (reference value: 14.6 +/- 0.3 ms)
[8] = target: Potassium voltage-gated channel subfamily A member 1 (Mus musculus) (UniProt P16388); assay: Inhibition of mouse Kv1.1 channel expressed in Xenopus laevis oocytes assessed as decrease in +60 mV current-induced time constant of activation at 15 uM after 2 mins by two-electrode voltage clamp assay relative to control
[9] = target: Potassium voltage-gated channel subfamily A member 1 (Mus musculus) (UniProt P16388); assay: Inhibition of mouse Kv1.1 channel expressed in Xenopus laevis oocytes assessed as decrease in +60 mV current-induced time constant of activation at 8 uM after 2 mins by two-electrode voltage clamp assay relative to control

Sequence of Potassium voltage-gated channel subfamily A member 1 (Mus musculus) (P16388 whole entry): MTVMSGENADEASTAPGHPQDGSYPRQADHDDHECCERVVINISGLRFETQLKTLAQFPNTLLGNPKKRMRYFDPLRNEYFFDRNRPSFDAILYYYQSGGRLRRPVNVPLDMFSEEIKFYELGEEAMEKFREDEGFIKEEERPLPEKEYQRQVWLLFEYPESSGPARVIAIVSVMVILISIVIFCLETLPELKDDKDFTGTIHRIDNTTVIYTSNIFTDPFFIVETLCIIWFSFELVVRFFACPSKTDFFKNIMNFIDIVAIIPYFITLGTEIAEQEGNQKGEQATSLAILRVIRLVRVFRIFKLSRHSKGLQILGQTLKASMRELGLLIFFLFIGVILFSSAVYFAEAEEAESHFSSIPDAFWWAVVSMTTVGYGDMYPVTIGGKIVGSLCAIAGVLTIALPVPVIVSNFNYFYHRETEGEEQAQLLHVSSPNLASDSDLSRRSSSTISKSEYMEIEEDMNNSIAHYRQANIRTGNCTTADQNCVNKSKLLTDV

Row | SMILES | fold change (FC) [1] | TIME [2] [h] | fold change (FC) [3] | fold change (FC) [4] | inhibition [5] [%] | TIME [6] [h] | TIME [7] [h] | fold change (FC) [8] | fold change (FC) [9]
1 | NCCc1c(Sc2[nH]c3cc(Br)ccc3c2CCN)[nH]c2cc(Br)ccc12 | 0.59 | 9.28e-06 | 5 |  |  |  |  |  | 
2 | NCCc1c(SSc2[nH]c3cc(Br)ccc3c2CCN)[nH]c2cc(Br)ccc12 |  |  |  | 0.69 | 15 | 3.81e-06 | 4.94e-06 | 5 | 3
3 | NCCc1c(SSSc2[nH]c3cc(Br)ccc3c2CCN)[nH]c2cc(Br)ccc12 |  |  |  |  | 35 |  | 4.06e-06 |  | 3
